From patent publication US20160031958A1, “METHODS AND COMPOSITIONS USEFUL IN MANIPULATING THE STABILITY OF RE1 SILENCING TRANSCRIPTION FACTOR” (OREGON HEALTH & SCIENCE UNIVERSITY, priority 2014, published 2016)
Where a SMILES comes first, the peptide text is derived from it. The star is where a group is joined. Cbz = O=C(OCc1ccccc1)*

Tests used:
endogenous REST protein [1] = assay: Western blot of endogenous REST protein after transfection of CTDSP1 cDNA into HEK293T cells; assay type: cell-based, Human; settings: HEK293T cells transfected with CTDSP1 cDNA
Procedure: FIG. 6D is an image of a Western blot analysis showing stabilized endogenous REST protein after transfection of CTDSP1 cDNA into HEK293T cells. α-tubulin is the loading control.
Using a REST phospho-specific polyclonal antibody, it was shown that exogenously expressed FLAG-CTDSP1 dephosphorylated these sites in full-length REST (FIG. 6B). Dephosphorylation by CTDSP1 was also observed in the REST reporter peptides as detected by in-gel fluorescence (FIG. 6C).
(§1) Whole cell lysates were prepared and immunoprecipitated following the procedures in Ballas N et al, 2001 supra and Nesti E et al, Mol Biol Cell 15, 4073-4088 (2004); incorporated by reference herein. Western blots were performed by standard procedures using antibodies described below and analyzed using anti IgG conjugated to infrared dyes (ThermoFisher) on an Odyssey® infrared fluorescence imager (LiCor). For detecting phosphorylated REST at S861/S864, cell extracts were prepared lacking phosphatase inhibitors. For phosphatase treatment, 75 μg of total protein was treated with 600 U lambda phosphatase (New England Biolabs) or with buffer alone at 30° C. for 1 h, according to the manufacturer's protocol. […] Infrared fluorescence was detected on the Odyssey® imager (LiCor) in the 700 nm channel. […]

endogenous REST protein [2] = assay: Western blot of endogenous REST protein levels in transfected E12.5 neurospheres; assay type: cell-based; settings: E12.5 mouse cortical neurospheres after transfection; MG132 4 h; compared to control peptides
Procedure: FIG. 7B is an image of a Western blot showing endogenous REST protein levels in E12.5 neurospheres after transfection. Lane 1, empty vector; lane 2, control (595-694) peptide; lane 3, REST(810-910) S861/864A peptide; lane 4, REST(810-910) WT peptide; lane 5, empty vector with MG132 treated for 4 h. The blot was probed with anti-mouse-REST antibody and anti-tubulin (loading control) antibodies.
There is a significant difference between REST (810-910) compared to control (595-694) peptide (n=5, p=0.0021) and REST(810-910) compared to S861/864A REST(810-910) (n=5, p=0.046). The difference between MG132 and REST(810-910) is not significant (n=5, p=0.7996, Sidak's multiple comparison test, error bars represent 95% confidence interval).
The Examples above used the REST (810-910) reporter as a surrogate substrate for signaling molecules that target S861/S864 on full-length REST. […]
(§2) Whole cell lysates were prepared and immunoprecipitated following the procedures in Ballas N et al, 2001 supra and Nesti E et al, Mol Biol Cell 15, 4073-4088 (2004); incorporated by reference herein. Western blots were performed by standard procedures using antibodies described below and analyzed using anti IgG conjugated to infrared dyes (ThermoFisher) on an Odyssey® infrared fluorescence imager (LiCor). […] Infrared fluorescence was detected on the Odyssey® imager (LiCor) in the 700 nm channel. […]

MEK [3] = assay: Native gel / in-gel GFP fluorescence of REST (810-910)-GFP reporter peptide phosphorylation in HEK293T cells; assay type: cell-based, Human
Procedure: To interrogate this serine residue, HEK293T cells were transfected with the REST (810-910)-GFP peptide with alanine mutations at S856, S861, and/or S864 as indicated. (S856/864A is S856A/S864A with S861 unmutated; S856/861A is S856A/S861A with S864 unmutated; S861/864A is S861A/S864A with S856 unmutated). […]
Gels were treated the same as in FIG. 5C.
To monitor phosphorylation status of specific REST sites under different circumstances, a cDNA reporter construct that expresses a peptide encoding amino acids 810-to-910 of REST (FIG. 3A) was constructed. Mutant REST (810-910) cDNAs encoding alanine mutations at S861, S864 and at an adjacent site, S856 were also constructed. S856 was minimally phosphorylated in the mass spectrometric analysis described above. […] The constructs also comprise regions that encode N-terminal FLAG and C-terminal eGFP tags (FIG. 3A). These constructs were transfected into HEK cells and expressed. Extracts from the cells were resolved on native gels 24 hours after transfection. The expressed peptides were detected by in-gel GFP fluorescence.
The phosphorylation state of the expressed REST peptides can be visualized by differential migration in native gels due to charge differences. The unmutated S861/S864 REST 810-910 peptide (FIG. 3B, lane 1) migrated predominantly as two distinct bands that were not present upon treatment with lambda phosphatase (FIG. 3B, lane 7). […] The identification of the doubly phosphorylated species was based upon the mobility of an unmutated peptide containing unmutated S861/864 (FIG. 3B, lane 2, S856A), which was not present in samples expressing peptides containing S861A or S864A single mutations (lanes 3 and 4, respectively).
Detection of in gel fluorescence on native 10.5%-14% acrylamide gels (Bio-Rad Cat #345-9949) was performed using the Typhoon imaging system by GE Healthcare Life Science.

MEK [4] = assay: Western blot of FLAG-REST protein levels in transfected HEK cells after MEK/ERK inhibitor; assay type: cell-based, Human; settings: HEK cells transfected with FLAG-REST cDNA, PD184352 or vehicle for 30 min
Procedure: To provide further support for this, unmutated REST (810-910) reporter cDNA was transfected into HEK cells and the peptide expressed in the presence and absence of the MEK/ERK inhibitor PD184352. Treatment with PD184352 caused a modest loss from the band at the position representing unmutated S861/S864 peptide and a reciprocal modest increase in the species representing unphosphorylated peptide (FIG. 5C). […] Accordingly, HEK cells transfected with FLAG-REST cDNA were treated with PD184352 for 30 min and the extracts were analyzed by Western blot.
as §1

Pin1 [5] = target: T1, Pin1 (Rattus norvegicus, UniProt A0ABK0LFD7); assay: Western blot of FLAG-REST protein levels in PC12 tet-on FLAG-REST cells treated with Pin1 inhibitor; assay type: cell-based; settings: PC12 tet-on FLAG-REST cells induced 24 h with doxycycline, PiB or vehicle for 7.5 h
T1 construct: endogenous in cells; host or cells: PC12 tet-on FLAG-REST cells
T1 sequence (A0ABK0LFD7 1-162): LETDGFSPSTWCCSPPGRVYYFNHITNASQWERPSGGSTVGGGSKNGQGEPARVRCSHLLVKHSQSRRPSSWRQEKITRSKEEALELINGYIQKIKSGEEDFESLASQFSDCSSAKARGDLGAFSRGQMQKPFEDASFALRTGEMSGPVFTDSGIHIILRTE
Procedure: PC12 tet-on FLAG-REST cells were induced 24 h with doxycycline, treated with PiB or vehicle for 7.5 h, and then extracted for analysis. Blots were probed with anti-FLAG (REST) and α-tubulin (loading control).
(§3) HEK293T cells were transfected using Lipofectamine 2000 (Life Technologies) following the manufacturer's instructions. PC12 tet, PC12 tet-on FLAG-REST, and HEK293T cell lines were maintained as described in Ballas N et al 2001 supra. Neurospheres were isolated from E12.5 mouse cortices and cultured as described in Reynolds B A and Weiss S, Science 255, 1707-1710 (1992); incorporated by reference herein in neurobasal media supplemented with 2 mM L-glutamine, 100 U/mL penicillin, […] streptomycin, B27 supplement, 20 ng/mL EGF, and 10 ng/mL FGF-2, all from Life Technologies. Neurospheres were passaged every 3-4 days using Accutase® (Sigma). […]
as §2

Pin1 [6] = target: T2, Pin1 (Homo sapiens, UniProt Q13526); assay: Co-immunoprecipitation of GST-βTrCP with FLAG-REST in HEK293T cells after Pin1 inhibition; assay type: cell-based; settings: FLAG-REST and GST-βTrCP 48 h, PiB 7.5 h and MG132 4 h
T2 construct: endogenous in cells; host or cells: HEK293T
T2 sequence (Q13526 whole entry): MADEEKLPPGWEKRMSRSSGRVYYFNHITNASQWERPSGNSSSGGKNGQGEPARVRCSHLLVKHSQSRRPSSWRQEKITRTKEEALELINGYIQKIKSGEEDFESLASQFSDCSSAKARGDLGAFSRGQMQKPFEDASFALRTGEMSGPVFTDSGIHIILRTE
Procedure: HEK293T cells were transfected with FLAG-REST (unmutated or S861A/S864A) and GST-βTrCP for 48 h prior to treatment with PiB for 7.5 h and MG132 for 4 h, and then immunoprecipitated. Western blots were probed with anti-FLAG or anti-GST.
as §3, §2

CC(C)C[C@@H](C=O)NC(=O)[C@H](CC(C)C)NC(=O)[C@H](CC(C)C)NC(=O)OCc1ccccc1 [MG132] (Cbz-Leu-Leu-Leu-aldehyde)
REST stabilization by CTDSP1, further effect of MG132 (endogenous REST protein [1]): not increased further
Endogenous full-length REST protein levels (endogenous REST protein [2]): did not stabilize the Rest protein further

O=C(NOCC1CC1)c1ccc(F)c(F)c1Nc1ccc(I)cc1Cl [PD184352]
EGF-induced phosphorylation of S864 in REST (810-910)-GFP peptide (MEK [3]; HEK293T, PD184352 for 20 min, then recombinant EGF 10 min): inhibited
Bands of doubly phosphorylated and non-phosphorylated REST (810-910) peptide (MEK [3]; REST (810-910) and GFP cDNA co-transfected into HEK cells, presence and absence of PD184352 (FIG. 10)): loss of band representing the doubly phosphorylated peptide
S861/S864 phosphorylation in WT REST peptide (MEK [3]; transfected HEK293T cells, 10 mM PD184352 for 4 hours): partial loss of S861/S864 phosphorylation
FLAG-REST protein levels (Western blot) (MEK [4]): increased FLAG-REST protein levels

CCOC(=O)CN1C(=O)c2ccc3c4c(ccc(c24)C1=O)C(=O)N(CC(=O)OCC)C3=O [PiB]
REST protein levels (anti-FLAG Western blot) (Pin1 [5]): higher REST protein levels
βTrCP binding to REST (co-immunoprecipitation) (Pin1 [6]): diminished βTrCP binding to REST

EGF: recombinant EGF, upstream activator of ERK
Phosphorylation of S864 in REST (810-910)-GFP peptide (mobility shift) (MEK [3]; HEK293T, recombinant EGF or vehicle 10 min): induces phosphorylation of S864
